# Measured values as given in ChEMBL document CHEMBL1142376, “Novel CADD-based peptidyl vinyl ester derivatives as potential proteasome inhibitors” (Bioorg Med Chem Lett, 2008).
# What was measured:
# KB = assay: Antiproliferative activity against human KB cells at 10 umole; assay type: functional
# [1] = Inhibition of trypsin-like activity of 20S proteasome
# BGC-823 = assay: Antiproliferative activity against human BGC823 cells at 10 umole; assay type: functional
# [2] = Inhibition of chymotrypsin-like activity of 20S proteasome
# Bel-7402 = assay: Antiproliferative activity against human Bel7402 cells at 10 umole; assay type: functional
# [3] = Inhibition of post acidic-like activity of 20S proteasome
# HL-60 = assay: Antiproliferative activity against human HL60 cells at 10 umole; assay type: functional
SMILES,Activity (KB) [%],IC50 [1] [µmol],Activity (BGC-823) [%],IC50 [2] [µmol],Activity (Bel-7402) [%],IC50 [3] [µmol],Activity (HL-60) [%]
CCOC(=O)/C=C/[C@H](C[C@@H]1CCNC1=O)NC(=O)[C@H](CC(C)C)NC(=O)[C@H](CO)NC(=O)[C@H](Cc1ccccc1)NC(=O)OC(C)(C)C,-4.17,> 100,14.25,> 100,-0.39,> 100,4.94
CCOC(=O)/C=C/[C@H](Cc1ccccc1)NC(=O)[C@H](CC(C)C)NC(=O)[C@H](CC(C)C)NC(=O)OC(C)(C)C,-1.67,> 100,9.95,> 100,-12.87,> 100,6.13
CCOC(=O)/C=C/[C@H](Cc1ccccc1)NC(=O)[C@H](CO)NC(=O)[C@H](Cc1ccccc1)NC(=O)OC(C)(C)C,5.23,> 100,8.28,> 100,-8.04,> 100,21.08
CCOC(=O)/C=C/[C@H](Cc1ccccc1)NC(=O)[C@H](CC(C)C)NC(=O)OC(C)(C)C,-6.67,> 100,30.21,> 100,1.55,> 100,33.88
CCOC(=O)/C=C/[C@H](C[C@@H]1CCNC1=O)NC(=O)[C@H](CO)NC(=O)[C@@H](NC(=O)OC(C)(C)C)C(C)C,-3.45,> 100,5.52,> 100,-4.98,> 100,-1.94
CCOC(=O)/C=C/[C@H](C[C@@H]1CCNC1=O)NC(=O)[C@H](CC(C)C)NC(=O)[C@@H](NC(=O)[C@@H](NC(=O)OC(C)(C)C)[C@@H](C)CC)[C@@H](C)O,4.3,> 100,19.98,> 100,-0.31,> 100,-2.32
CC(C)(C)OC(=O)N[C@@H](Cc1ccccc1)C(=O)N[C@@H](CO)C(=O)N[C@H](/C=C/C(=O)O)Cc1ccc(O)cc1,7.44,> 100,10.28,> 100,3.39,> 100,13.37
CCOC(=O)/C=C/[C@H](Cc1ccccc1)NC(=O)[C@@H](NC(=O)[C@@H](NC(=O)OC(C)(C)C)[C@@H](C)CC)[C@@H](C)O,10.75,> 100,13.62,> 100,-1.79,> 100,8.17
CC(C)(C)OC(=O)N[C@@H](Cc1ccccc1)C(=O)N[C@@H](CO)C(=O)N[C@H](/C=C/C(=O)O)C[C@@H]1CCNC1=O,-15.6,> 100,16.9,> 100,1.66,> 100,31.04
CCOC(=O)/C=C/[C@H](C[C@@H]1CCNC1=O)NC(=O)[C@H](Cc1ccc(O)cc1)NC(=O)[C@H](CC(C)C)NC(=O)[C@H](CC(C)C)NC(=O)OC(C)(C)C,6.64,> 100,28.9,63.41,7.64,> 100,17.73
CCOC(=O)/C=C/[C@H](Cc1ccccc1)NC(=O)[C@H](CO)NC(=O)[C@@H](NC(=O)OC(C)(C)C)C(C)C,-6.79,> 100,0.04,> 100,-11.09,> 100,0.36
CCOC(=O)/C=C/[C@H](C[C@@H]1CCNC1=O)NC(=O)[C@@H](NC(=O)[C@@H](NC(=O)OC(C)(C)C)[C@@H](C)CC)[C@@H](C)O,-10.29,> 100,0.69,> 100,-16.67,> 100,0.71
CCOC(=O)/C=C/[C@H](Cc1ccc(O)cc1)NC(=O)[C@H](Cc1ccccc1)NC(=O)[C@H](CC(C)C)NC(=O)OC(C)(C)C,-5.34,> 100,13.74,> 100,-4.24,> 100,7.87
CCOC(=O)/C=C/[C@H](Cc1ccccc1)NC(=O)[C@H](Cc1ccccc1)NC(=O)OC(C)(C)C,-4.66,> 100,20.9,> 100,-3.61,> 100,25.73
CCOC(=O)/C=C/[C@H](Cc1ccccc1)NC(=O)[C@@H](NC(=O)OC(C)(C)C)[C@@H](C)CC,-0.18,> 100,24.14,> 100,-7.74,> 100,29.56
CCOC(=O)/C=C/[C@H](C[C@@H]1CCNC1=O)NC(=O)[C@H](Cc1ccccc1)NC(=O)[C@H](CC(C)C)NC(=O)OC(C)(C)C,-1.56,> 100,13.89,> 100,-1.63,> 100,-7.61
CCOC(=O)/C=C/[C@H](Cc1ccc(O)cc1)NC(=O)[C@H](CC(C)C)NC(=O)OC(C)(C)C,1.72,> 100,17.01,> 100,-10.27,> 100,5.87
CCOC(=O)/C=C/[C@H](Cc1ccc(O)cc1)NC(=O)[C@H](Cc1ccccc1)NC(=O)OC(C)(C)C,-0.7,> 100,33.88,> 100,12.68,> 100,23.66
CCOC(=O)/C=C/[C@H](Cc1ccccc1)NC(=O)[C@@H](NC(=O)OC(C)(C)C)C(C)C,-1.97,> 100,21.27,> 100,-3.57,> 100,27.13
CCOC(=O)/C=C/[C@H](Cc1ccc(O)cc1)NC(=O)[C@H](CC(C)C)NC(=O)[C@H](CC(C)C)NC(=O)OC(C)(C)C,-5.99,> 100,0.02,> 100,-6.95,> 100,-2.64
CCOC(=O)/C=C/[C@H](Cc1ccccc1)NC(=O)[C@H](Cc1ccccc1)NC(=O)[C@H](CC(C)C)NC(=O)OC(C)(C)C,4.33,> 100,13.32,> 100,-4.56,> 100,8.65
CCOC(=O)/C=C/[C@H](Cc1ccccc1)NC(=O)[C@H](CO)NC(=O)OC(C)(C)C,-11.24,> 100,19.11,> 100,-3.14,> 100,19.98
CCOC(=O)/C=C/[C@H](Cc1ccc(O)cc1)NC(=O)[C@@H](NC(=O)[C@@H](NC(=O)OC(C)(C)C)[C@@H](C)CC)[C@@H](C)O,3.76,> 100,14.69,> 100,3.1,> 100,26.5
CCOC(=O)/C=C/[C@H](Cc1ccc(O)cc1)NC(=O)[C@@H](NC(=O)OC(C)(C)C)[C@@H](C)CC,5.27,> 100,23.06,> 100,3.32,> 100,21.66
CCOC(=O)/C=C/[C@H](C[C@@H]1CCNC1=O)NC(=O)[C@H](CC(C)C)NC(=O)[C@H](CO)NC(=O)[C@@H](NC(=O)OC(C)(C)C)C(C)C,9.15,> 100,20.55,> 100,-3.55,> 100,-47.14
CCOC(=O)/C=C/[C@H](C[C@@H]1CCNC1=O)NC(=O)[C@H](CC(C)C)NC(=O)[C@H](CC(C)C)NC(=O)[C@H](CC(C)C)NC(=O)OC(C)(C)C,15.73,> 100,16.14,48.31,12.02,> 100,17.17
CCOC(=O)/C=C/[C@H](Cc1ccc(O)cc1)NC(=O)[C@@H](NC(=O)OC(C)(C)C)C(C)C,1.76,> 100,18.44,> 100,4.6,> 100,22.1
CC(C)(C)OC(=O)N[C@@H](CO)C(=O)N[C@H](/C=C/C(=O)O)Cc1ccc(O)cc1,-15.49,> 100,22.56,> 100,-5.91,> 100,19.26
